Test system: 485368-065-R3-J5-PDC spheroids with HUVEC/MSC, viability
Test: Anticancer human tumor 485368-065-R3-J5-PDC patient-derived pancreatic carcinoma cell line growth inhibition [RAS]
Details: for IC50: curve of first compound; for viability, T/C: stronger effect = lower value
Outline: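 Agents were tested in combination matrices in half-log decrements from a top concentration at or near clinical Cmax (10 microM if undetermined). Targets were multi-cell spheroids of tumour lines plus HUVEC and MSC stromal cells.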
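Also: spheroids exposed to agents for seven days before readout.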

CCc1c2c(nc3ccc(O)cc13)-c1cc3c(c(=O)n1C2)COC(=O)[C@]3(O)CC + CCn1c(-c2cc(N3CCN(C)CC3)cnc2C(C)OC)c2c3cc(ccc31)-c1csc(n1)CC(NC(=O)C1CC1C)C(=O)N1CCCC(N1)C(=O)OCC(C)(C)C2
IC50 (second compound 0.000949 µM): < 0.949 nM
IC50 (second compound 0.003 µM): < 0.949 nM
IC50 (second compound 0.00949 µM): < 0.949 nM
IC50 (second compound 0.03 µM): < 0.949 nM
IC50 (second compound 0.0949 µM): < 0.949 nM
IC50 (second compound 0.3 µM): < 0.949 nM
viability, T/C (second compound 0.000949 µM, first compound 0.000949 µM): 29.2%
viability, T/C (second compound 0.000949 µM, first compound 0.003 µM): 19.3%
viability, T/C (second compound 0.000949 µM, first compound 0.00949 µM): 12.3%
viability, T/C (second compound 0.000949 µM, first compound 0.03 µM): 6.49%
viability, T/C (second compound 0.000949 µM, first compound 0.0949 µM): 3.81%
viability, T/C (second compound 0.000949 µM, first compound 0.3 µM): 3.85%
viability, T/C (second compound 0.003 µM, first compound 0.000949 µM): 17.6%
viability, T/C (second compound 0.003 µM, first compound 0.003 µM): 13.6%
viability, T/C (second compound 0.003 µM, first compound 0.00949 µM): 9.1%
viability, T/C (second compound 0.003 µM, first compound 0.03 µM): 7.85%
viability, T/C (second compound 0.003 µM, first compound 0.0949 µM): 5.44%
viability, T/C (second compound 0.003 µM, first compound 0.3 µM): 3.67%
viability, T/C (second compound 0.00949 µM, first compound 0.000949 µM): 15.4%
viability, T/C (second compound 0.00949 µM, first compound 0.003 µM): 11.8%
viability, T/C (second compound 0.00949 µM, first compound 0.00949 µM): 8.19%
viability, T/C (second compound 0.00949 µM, first compound 0.03 µM): 7.82%
viability, T/C (second compound 0.00949 µM, first compound 0.0949 µM): 5.53%
viability, T/C (second compound 0.00949 µM, first compound 0.3 µM): 6.59%
viability, T/C (second compound 0.03 µM, first compound 0.000949 µM): 9.82%
viability, T/C (second compound 0.03 µM, first compound 0.003 µM): 8.14%
viability, T/C (second compound 0.03 µM, first compound 0.00949 µM): 6.87%
viability, T/C (second compound 0.03 µM, first compound 0.03 µM): 8.66%
viability, T/C (second compound 0.03 µM, first compound 0.0949 µM): 5.8%
viability, T/C (second compound 0.03 µM, first compound 0.3 µM): 7.18%
viability, T/C (second compound 0.0949 µM, first compound 0.000949 µM): 8.87%
viability, T/C (second compound 0.0949 µM, first compound 0.003 µM): 8.54%
viability, T/C (second compound 0.0949 µM, first compound 0.00949 µM): 6.42%
viability, T/C (second compound 0.0949 µM, first compound 0.03 µM): 6.3%
viability, T/C (second compound 0.0949 µM, first compound 0.0949 µM): 6.27%
viability, T/C (second compound 0.0949 µM, first compound 0.3 µM): 5.48%
viability, T/C (second compound 0.3 µM, first compound 0.000949 µM): 7.33%
viability, T/C (second compound 0.3 µM, first compound 0.003 µM): 9.17%
viability, T/C (second compound 0.3 µM, first compound 0.00949 µM): 6.28%
viability, T/C (second compound 0.3 µM, first compound 0.03 µM): 5.07%
viability, T/C (second compound 0.3 µM, first compound 0.0949 µM): 5.93%
viability, T/C (second compound 0.3 µM, first compound 0.3 µM): 5.26%

C=CC(=O)Nc1cc(Nc2nccc(-c3cn(C)c4ccccc34)n2)c(OC)cc1N(C)CCN(C)C + CCn1c(-c2cccnc2C(C)OC)c2c3cc(ccc31)N1CCOC(CC(NC(=O)C(C(C)C)N(C)C(=O)C3(F)CCN(C(=O)C#CC(C)(C)N(C)C)CC3)C(=O)N3CCCC(N3)C(=O)OCC(C)(C)C2)C1
IC50 (second compound 0.000949 µM): > 1000 nM
IC50 (second compound 0.003 µM): > 1000 nM
IC50 (second compound 0.00949 µM): > 1000 nM
IC50 (second compound 0.03 µM): > 1000 nM
IC50 (second compound 0.0949 µM): > 1000 nM
IC50 (second compound 0.3 µM): > 1000 nM
viability, T/C (second compound 0.000949 µM, first compound 0.00316 µM): 104%
viability, T/C (second compound 0.000949 µM, first compound 0.01 µM): 94.9%
viability, T/C (second compound 0.000949 µM, first compound 0.0316 µM): 99%
viability, T/C (second compound 0.000949 µM, first compound 0.1 µM): 91%
viability, T/C (second compound 0.000949 µM, first compound 0.316 µM): 101%
viability, T/C (second compound 0.000949 µM, first compound 1 µM): 105%
viability, T/C (second compound 0.003 µM, first compound 0.00316 µM): 87.5%
viability, T/C (second compound 0.003 µM, first compound 0.01 µM): 95.3%
viability, T/C (second compound 0.003 µM, first compound 0.0316 µM): 102%
viability, T/C (second compound 0.003 µM, first compound 0.1 µM): 93.7%
viability, T/C (second compound 0.003 µM, first compound 0.316 µM): 113%
viability, T/C (second compound 0.003 µM, first compound 1 µM): 115%
viability, T/C (second compound 0.00949 µM, first compound 0.00316 µM): 88.7%
viability, T/C (second compound 0.00949 µM, first compound 0.01 µM): 95.7%
viability, T/C (second compound 0.00949 µM, first compound 0.0316 µM): 98.4%
viability, T/C (second compound 0.00949 µM, first compound 0.1 µM): 102%
viability, T/C (second compound 0.00949 µM, first compound 0.316 µM): 117%
viability, T/C (second compound 0.00949 µM, first compound 1 µM): 103%
viability, T/C (second compound 0.03 µM, first compound 0.00316 µM): 89.4%
viability, T/C (second compound 0.03 µM, first compound 0.01 µM): 114%
viability, T/C (second compound 0.03 µM, first compound 0.0316 µM): 92.5%
viability, T/C (second compound 0.03 µM, first compound 0.1 µM): 98%
viability, T/C (second compound 0.03 µM, first compound 0.316 µM): 105%
viability, T/C (second compound 0.03 µM, first compound 1 µM): 110%
viability, T/C (second compound 0.0949 µM, first compound 0.00316 µM): 104%
viability, T/C (second compound 0.0949 µM, first compound 0.01 µM): 105%
viability, T/C (second compound 0.0949 µM, first compound 0.0316 µM): 105%
viability, T/C (second compound 0.0949 µM, first compound 0.1 µM): 107%
viability, T/C (second compound 0.0949 µM, first compound 0.316 µM): 110%
viability, T/C (second compound 0.0949 µM, first compound 1 µM): 97.6%
viability, T/C (second compound 0.3 µM, first compound 0.00316 µM): 101%
viability, T/C (second compound 0.3 µM, first compound 0.01 µM): 99.7%
viability, T/C (second compound 0.3 µM, first compound 0.0316 µM): 106%
viability, T/C (second compound 0.3 µM, first compound 0.1 µM): 112%
viability, T/C (second compound 0.3 µM, first compound 0.316 µM): 106%
viability, T/C (second compound 0.3 µM, first compound 1 µM): 101%

— PubChem BioAssay AID2060902 (Molecular Pharmacology Branch, DTP, NCI, 2025)
